Data published in the supplement of paper PMC10307832.

What follows are cell lines tested with COc1cc2nc(N3CCCN(C)CC3)nc(NC3CCN(Cc4ccccc4)CC3)c2cc1OC + CC(=O)c1c(C)c2cnc(Nc3ccc(N4CCNCC4)cn3)nc2n(C2CCCC2)c1=O [Palbociclib] (partner 0.5 µM) (assay: relative viability (nuclei count vs DMSO), 5 days (fraction); higher = more cells survive). Details: first compound 0.2 µM.
How it was run: (§1)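 Lung cancer cell lines in 1536-well plates were dosed by pin tool the day after seeding, either with one drug alone or with a fixed anchor-drug dose plus five library-drug doses (not always all listed) in √10 steps. After 5 days, cells were fixed and their nuclei stained in one step (final 0.05% Triton X-100, 1% formaldehyde, 1 ug/ml Hoechst), then counted on 4× images. Relative viability is the nuclei count in treated wells divided by that in vehicle wells. Values are medians of duplicate plates.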

Cell Line | relative viability
HARA | 0.21
SW 900 | 0.538
HCC-78 | 0.491
NCI-H322M | 0.468
LCLC-97TM1 | 0.219
NCI-H2009 | 0.222
A-427 | 0.533
NCI-H441 | 0.191
NCI-H661 | 0.417
NCI-H1734 | 0.375
NCI-H460 | 0.101
NCI-H2347 | 0.46
SK-LU-1 | 0.409
NCI-H1395 | 0.642
201T | 0.375
NCI-H1915 | 0.527
HCC-827 | 0.478

Same assay, conditions: first compound 0.6325 µM

Cell Line | relative viability
HARA | 0.312
SW 900 | 0.442
HCC-78 | 0.448
NCI-H322M | 0.531
LCLC-97TM1 | 0.231
NCI-H2009 | 0.253
A-427 | 0.503
NCI-H441 | 0.219
NCI-H661 | 0.429
NCI-H1734 | 0.367
NCI-H460 | 0.237
NCI-H2347 | 0.433
SK-LU-1 | 0.353
NCI-H1395 | 0.605
201T | 0.361
NCI-H1915 | 0.504
HCC-827 | 0.448

Same assay, conditions: first compound 2 µM

Cell Line | relative viability
HARA | 0.252
SW 900 | 0.566
HCC-78 | 0.508
NCI-H322M | 0.435
LCLC-97TM1 | 0.254
NCI-H2009 | 0.413
A-427 | 0.521
NCI-H441 | 0.236
NCI-H661 | 0.426
NCI-H1734 | 0.292
NCI-H460 | 0.084
NCI-H2347 | 0.385
SK-LU-1 | 0.394
NCI-H1395 | 0.618
201T | 0.354
NCI-H1915 | 0.607
HCC-827 | 0.437

Same assay, conditions: first compound 6.325 µM

Cell Line | relative viability
HARA | 0.278
SW 900 | 0.46
HCC-78 | 0.463
NCI-H322M | 0.481
LCLC-97TM1 | 0.238
NCI-H2009 | 0.24
A-427 | 0.485
NCI-H441 | 0.207
NCI-H661 | 0.387
NCI-H1734 | 0.38
NCI-H460 | 0.0622
NCI-H2347 | 0.422
SK-LU-1 | 0.375
NCI-H1395 | 0.565
201T | 0.365
NCI-H1915 | 0.461
HCC-827 | 0.446

What follows are cell lines tested with COc1cc2nc(N3CCCN(C)CC3)nc(NC3CCN(Cc4ccccc4)CC3)c2cc1OC + COc1cccc2cc(-c3nc([C@H]4CC[C@H](C(=O)O)CC4)n4ncnc(N)c34)[nH]c12 [OSI-027] (partner 0.5 µM) in the same assay as above. Details: first compound 0.2 µM.
How it was run: as §1

Cell Line | relative viability
HARA | 0.535
SW 900 | 0.445
HCC-78 | 0.381
NCI-H322M | 0.546
LCLC-97TM1 | 0.569
NCI-H2009 | 0.681
A-427 | 0.487
NCI-H441 | 0.576
NCI-H661 | 0.734
NCI-H1734 | 0.587
NCI-H460 | 0.669
NCI-H2347 | 0.461
SK-LU-1 | 0.358
NCI-H1395 | 0.715
201T | 0.706
NCI-H1915 | 0.584
HCC-827 | 0.761

Same assay, conditions: first compound 0.6325 µM

Cell Line | relative viability
HARA | 0.483
SW 900 | 0.539
HCC-78 | 0.33
NCI-H322M | 0.504
LCLC-97TM1 | 0.621
NCI-H2009 | 0.531
A-427 | 0.55
NCI-H441 | 0.521
NCI-H661 | 0.691
NCI-H1734 | 0.583
NCI-H460 | 0.674
NCI-H2347 | 0.304
SK-LU-1 | 0.302
NCI-H1395 | 0.731
201T | 0.811
NCI-H1915 | 0.619
HCC-827 | 0.793

Same assay, conditions: first compound 2 µM

Cell Line | relative viability
HARA | 0.454
SW 900 | 0.546
HCC-78 | 0.329
NCI-H322M | 0.595
LCLC-97TM1 | 0.674
NCI-H2009 | 0.784
A-427 | 0.442
NCI-H441 | 0.573
NCI-H661 | 0.772
NCI-H1734 | 0.506
NCI-H460 | 0.565
NCI-H2347 | 0.452
SK-LU-1 | 0.36
NCI-H1395 | 0.677
201T | 0.73
NCI-H1915 | 0.684
HCC-827 | 0.687

Same assay, conditions: first compound 6.325 µM

Cell Line | relative viability
HARA | 0.398
SW 900 | 0.409
HCC-78 | 0.377
NCI-H322M | 0.423
LCLC-97TM1 | 0.537
NCI-H2009 | 0.29
A-427 | 0.386
NCI-H441 | 0.591
NCI-H661 | 0.725
NCI-H1734 | 0.501
NCI-H460 | 0.63
NCI-H2347 | 0.472
SK-LU-1 | 0.179
NCI-H1395 | 0.419
201T | 0.601
NCI-H1915 | 0.637
HCC-827 | 0.781

The cell lines below were run with COc1cc2nc(N3CCCN(C)CC3)nc(NC3CCN(Cc4ccccc4)CC3)c2cc1OC + N=C(N)NC(=N)NCCc1ccccc1 [Phenformin] (partner 250 µM) in the same assay as above. Details: first compound 0.2 µM.
How it was run: as §1

Cell Line | relative viability
HARA | 0.474
SW 900 | 0.522
HCC-78 | 0.73
NCI-H322M | 0.669
LCLC-97TM1 | 0.432
NCI-H2009 | 0.471
A-427 | 0.337
NCI-H441 | 0.821
NCI-H661 | 0.295
NCI-H1734 | 0.383
NCI-H460 | 0.501
NCI-H2347 | 0.399
SK-LU-1 | 0.537
NCI-H1395 | 0.461
201T | 0.464
NCI-H1915 | 0.371
HCC-827 | 0.405

Same assay, conditions: first compound 0.6325 µM

Cell Line | relative viability
HARA | 0.425
SW 900 | 0.682
HCC-78 | 0.793
NCI-H322M | 0.743
LCLC-97TM1 | 0.401
NCI-H2009 | 0.447
A-427 | 0.422
NCI-H441 | 0.859
NCI-H661 | 0.296
NCI-H1734 | 0.383
NCI-H460 | 0.492
NCI-H2347 | 0.447
SK-LU-1 | 0.517
NCI-H1395 | 0.451
201T | 0.414
NCI-H1915 | 0.351
HCC-827 | 0.431

Same assay, conditions: first compound 2 µM

Cell Line | relative viability
HARA | 0.494
SW 900 | 0.645
HCC-78 | 0.675
NCI-H322M | 0.748
LCLC-97TM1 | 0.503
NCI-H2009 | 0.56
A-427 | 0.305
NCI-H441 | 1.03
NCI-H661 | 0.27
NCI-H1734 | 0.389
NCI-H460 | 0.478
NCI-H2347 | 0.555
SK-LU-1 | 0.616
NCI-H1395 | 0.433
201T | 0.462
NCI-H1915 | 0.374
HCC-827 | 0.294

Same assay, conditions: first compound 6.325 µM

Cell Line | relative viability
HARA | 0.462
SW 900 | 0.47
HCC-78 | 0.777
NCI-H322M | 0.762
LCLC-97TM1 | 0.465
NCI-H2009 | 0.385
A-427 | 0.247
NCI-H441 | 0.85
NCI-H661 | 0.266
NCI-H1734 | 0.346
NCI-H460 | 0.484
NCI-H2347 | 0.408
SK-LU-1 | 0.462
NCI-H1395 | 0.397
201T | 0.442
NCI-H1915 | 0.364
HCC-827 | 0.402

The cell lines below were run with Cc1cc([C@@H](C)Nc2ccccc2C(=O)O)c2nc(N3CCOCC3)cc(=O)n2c1 [AZD6482] + N=C(N)NC(=N)NCCc1ccccc1 [Phenformin] (partner 250 µM) in the same assay as above. Details: first compound 0.08 µM.
How it was run: as §1

Cell Line | relative viability
HARA | 0.376
SW 900 | 0.48
HCC-78 | 0.506
NCI-H322M | 0.705
LCLC-97TM1 | 0.443
NCI-H2009 | 0.476
A-427 | 0.345
NCI-H441 | 0.677
NCI-H661 | 0.285
NCI-H1734 | 0.386
NCI-H460 | 0.492
NCI-H2347 | 0.198
NCI-H1395 | 0.388
201T | 0.436
NCI-H1915 | 0.379
HCC-827 | 0.45

Same assay, conditions: first compound 0.253 µM

Cell Line | relative viability
HARA | 0.395
SW 900 | 0.29
HCC-78 | 0.421
NCI-H322M | 0.673
LCLC-97TM1 | 0.44
NCI-H2009 | 0.49
A-427 | 0.232
NCI-H441 | 0.679
NCI-H661 | 0.274
NCI-H1734 | 0.333
NCI-H460 | 0.512
NCI-H2347 | 0.277
SK-LU-1 | 0.454
NCI-H1395 | 0.385
201T | 0.433
NCI-H1915 | 0.334
HCC-827 | 0.345

Same assay, conditions: first compound 0.8 µM

Cell Line | relative viability
HARA | 0.486
SW 900 | 0.449
HCC-78 | 0.562
NCI-H322M | 0.712
LCLC-97TM1 | 0.39
NCI-H2009 | 0.442
A-427 | 0.319
NCI-H441 | 0.967
NCI-H661 | 0.297
NCI-H1734 | 0.465
NCI-H460 | 0.535
NCI-H2347 | 0.235
SK-LU-1 | 0.502
NCI-H1395 | 0.438
201T | 0.496
NCI-H1915 | 0.384
HCC-827 | 0.381

Same assay, conditions: first compound 2.53 µM

Cell Line | relative viability
HARA | 0.399
HCC-78 | 0.309
NCI-H322M | 0.414
LCLC-97TM1 | 0.363
NCI-H2009 | 0.283
NCI-H661 | 0.245
NCI-H1734 | 0.229
NCI-H460 | 0.326
NCI-H2347 | 0.243
SK-LU-1 | 0.347
NCI-H1395 | 0.347
201T | 0.308
NCI-H1915 | 0.326
HCC-827 | 0.288

Same assay, conditions: first compound 8 µM

Cell Line | relative viability
HARA | 0.168
SW 900 | 0.414
HCC-78 | 0.31
NCI-H322M | 0.537
LCLC-97TM1 | 0.308
NCI-H2009 | 0.34
A-427 | 0.225
NCI-H441 | 0.468
NCI-H661 | 0.216
NCI-H1734 | 0.226
NCI-H460 | 0.182
NCI-H2347 | 0.221
SK-LU-1 | 0.237
NCI-H1395 | 0.302
201T | 0.314
NCI-H1915 | 0.357
HCC-827 | 0.301
